Results: publication PMC9739105, “Myotoxin-3 from the Pacific Rattlesnake Crotalus oreganus oreganus Venom Is a New Microtubule-Targeting Agent” (Molecules, 2022)
Where no end group is shown, it is not given here.

Tests used:
[1] = test system: cell; details: ref [24]; cited from earlier work
From the text: Moreover, myotoxin-3 altered the dynamics of microtubules in MCF-7 cells (Table 1). […] Disturbing the dynamic instability of microtubules is a hallmark o ...

[2] = reference not given; cited from earlier work
From the text: In summary, peak 1 contains two 45-residue peptides, i.e., myotoxin-3 (45-residue His^5-myotoxin-3) and one isoform with Leucine at position 5 (45-residue Leu^5-myotoxin-3). Peak 2 contains two shorter isoforms (43 residues) of myotoxin-3 with either Histidine (43-residue His^5-myotoxin-3) or Leucine at position 5 (43-residue Leu^5-myotoxin-3) (Figure 3). This structure resemblance explains the similarity in their chromatographic behavior.

[3] = test system: MCF-7 cells; details: ref [30]; cited from earlier work
From the text: (§1) We also observed a different response of MCF-7 and U87 cells when measuring cell viability upon myotoxin-3 treatment. […] The tubulin isotype composition impacts the structural properties of microtubules and tunes their dynamics. Tubulin is also subjected to a large diversity of post-translational modifications that a ...

[4] = test system: HeLa cells; details: ref [30]; cited from earlier work
From the text: as §1

[5] = test system: bacteria/fungi (anti-microbial activity); details: without disulfide bonds; ref [18],[19]; cited from earlier work
[6] = test system: EB1; details: through phosphorylation of EB1 by GSK3; ref [34]; cited from earlier work
[7] = target: lamb brain αβ-tubulin heterodimer (lamb (purified from lamb brain)); assay: ITC; PEAQ-ITC, 20 °C, 55 µM tubulin in the cell, 2.2 mM myotoxin 3 in the syringe, 20 mM sodium phosphate pH 6.5, 1 mM TCEP, 0.1 mM GTP (non-assembly buffer), one-set-of-sites model

crotamine
Cell penetration [1]: cell-penetrating properties | Anti-proliferative effect [2]: displaying an anti-proliferative effect

CC[C@]1(O)C[C@H]2CN(CCc3c([nH]c4ccccc34)[C@@](C(=O)OC)(c3cc4c(cc3OC)N(C=O)[C@H]3[C@@](O)(C(=O)OC)[C@H](OC(C)=O)[C@]5(CC)C=CCN6CC[C@]43[C@@H]65)C2)C1 [vincristine]
Response of cells to vincristine [3]: reattached to the culture flask after a failed mitosis and remained viable | Response of cells to vincristine [4]: detached and died

DTT-reduced crotamine: DTT-reduced crotamine (YKQCHKKGGHCFPKEKICLPPSSDFGKMDCRWRWKCCKKGSG; DTT-reduced; UniProt Q9PWF3 23-64, looked up)
Antimicrobial activity [5]: kept their antimicrobial activity

C[C@@H]1O[C@@H](O[C@@H]2C=C3CC[C@@H]4[C@H](CC[C@]5(C)[C@@H](c6ccc(=O)oc6)CC[C@]45O)[C@@]3(C)CC2)[C@H](O)[C@H](O)[C@H]1O [proscillaridin A]
Effect on microtubule dynamics [6]: affecting microtubule dynamics through the phosphorylation of EB1 by GSK3

C[C@]12CC[C@H](O)C[C@H]1CC[C@@H]1[C@@H]2CC[C@]2(C)[C@@H](c3ccc(=O)oc3)CC[C@]12O [bufalin]
Effect on microtubule dynamics [6]: affecting microtubule dynamics through the phosphorylation of EB1 by GSK3

non-structured recombinant crotamine: non-structured recombinant crotamine expressed in bacteria (YKQCHKKGGHCFPKEKICLPPSSDFGKMDCRWRWKCCKKGSG; also: recombinant, without disulfide bonds; UniProt Q9PWF3 23-64, looked up)
Antimicrobial activity [5]: kept their antimicrobial activity

non-structured crotamine: non-structured crotamine (without disulfide bonds) (YKQCHKKGGHCFPKEKICLPPSSDFGKMDCRWRWKCCKKGSG; without disulfide bonds; UniProt Q9PWF3 23-64, looked up)
Antimicrobial activity [5]: keeps its anti-microbial activity

B1: synthetic non-oxidized myotoxin-3 (without disulfide bonds) (peptide)
chain: YKRCHKKGGHCFPKTVICLPPSSDFGKMDCRWKWKCCKKGSVNNA
modifications: cysteines not oxidized (no disulfide bonds)
Kd [7]: 5.3 µM | stoichiometry N ([7]; scale: myotoxin-3 molecules per tubulin heterodimer): 2
